Assay results taken from ChEMBL document CHEMBL1135548 (J Med Chem, 2002).
pIC50, pKi: −log10 of the molar value.

Assays:
Experiment in all cases: biochemical
Adenosine receptor A2a [1] = target: T1, Adenosine receptor A2a (Homo sapiens, UniProt P29274)
Adenosine receptor A2a [2] = target: T1, Adenosine receptor A2a; remark: listed apart in the source
Adenosine receptor A2b [3] = target: T2, Adenosine receptor A2b (Homo sapiens, UniProt P29275)
T2 sequence (P29275 whole entry): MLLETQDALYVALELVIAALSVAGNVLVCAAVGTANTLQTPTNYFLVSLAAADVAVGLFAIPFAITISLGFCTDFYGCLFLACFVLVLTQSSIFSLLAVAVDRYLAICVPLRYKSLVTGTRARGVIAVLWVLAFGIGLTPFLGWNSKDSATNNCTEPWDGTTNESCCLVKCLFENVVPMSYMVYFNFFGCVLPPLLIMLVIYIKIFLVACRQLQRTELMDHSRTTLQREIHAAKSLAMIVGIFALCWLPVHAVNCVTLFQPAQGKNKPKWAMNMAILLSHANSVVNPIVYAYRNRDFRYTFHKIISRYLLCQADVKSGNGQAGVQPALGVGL

Adenosine receptor A1 [4] = target: T3, Adenosine receptor A1 (Homo sapiens, UniProt P30542)
T3 sequence (P30542 whole entry): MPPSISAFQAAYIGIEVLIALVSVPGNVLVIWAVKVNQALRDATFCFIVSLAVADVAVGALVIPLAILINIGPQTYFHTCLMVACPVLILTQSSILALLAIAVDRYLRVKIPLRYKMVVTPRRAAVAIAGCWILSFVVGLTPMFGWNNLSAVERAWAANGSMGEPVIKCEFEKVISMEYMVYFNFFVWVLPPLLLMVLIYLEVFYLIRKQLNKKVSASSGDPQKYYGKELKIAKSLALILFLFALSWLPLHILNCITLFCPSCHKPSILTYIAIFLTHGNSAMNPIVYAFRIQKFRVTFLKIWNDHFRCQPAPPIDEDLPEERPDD
Description: Inhibition of [3H]DPCPX binding to human Adenosine A1 receptor expressed in CHO cells; Range 256-620

Adenosine receptor A1 [5] = target: T3, Adenosine receptor A1; remark: listed apart in the source
Adenosine receptor A2a [6] = target: T1, Adenosine receptor A2a; remark: listed apart in the source
Description: Inhibition of [3H]CGS-21680 binding to human Adenosine A2a receptor expressed in HEK293 cells; Range 438-749

Adenosine receptor A2b [7] = target: T2, Adenosine receptor A2b; remark: listed apart in the source
Description: Inhibition of [3H]DPCPX binding to human Adenosine A2B receptor expressed in HEK cells; range 640-1100

Adenosine receptor A2a [8] = target: T1, Adenosine receptor A2a; remark: listed apart in the source
Description: Inhibition of [3H]CGS-21680 binding to human Adenosine A2A receptor expressed in HEK293 cells

Adenosine receptor A1 [9] = target: T3, Adenosine receptor A1; type: cell-based, CHO
Description: Inhibition of [3H]DPCPX binding to human Adenosine A1 receptor expressed in CHO cells

Adenosine receptor A1 [10] = target: T3, Adenosine receptor A1; remark: listed apart in the source
Adenosine receptor A2b [11] = target: T2, Adenosine receptor A2b; remark: listed apart in the source
Description: Inhibition of [3H]DPCPX binding to human Adenosine A2B receptor expressed in HEK cells; Range 3580-12400

T1 sequence (P29274 whole entry): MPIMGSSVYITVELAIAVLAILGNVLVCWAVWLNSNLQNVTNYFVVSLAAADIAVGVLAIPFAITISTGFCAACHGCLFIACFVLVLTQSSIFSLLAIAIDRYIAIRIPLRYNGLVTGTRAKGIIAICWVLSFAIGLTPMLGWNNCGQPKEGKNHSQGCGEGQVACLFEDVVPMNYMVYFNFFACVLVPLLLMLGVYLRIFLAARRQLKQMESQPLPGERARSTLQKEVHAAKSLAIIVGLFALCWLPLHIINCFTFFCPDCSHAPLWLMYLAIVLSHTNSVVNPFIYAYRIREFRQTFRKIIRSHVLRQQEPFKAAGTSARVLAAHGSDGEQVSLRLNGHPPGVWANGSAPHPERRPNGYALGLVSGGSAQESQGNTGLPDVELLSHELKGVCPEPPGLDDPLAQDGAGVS

Compound `CCCCc1nc2[nH]cnc2c2nc(-c3ccc(OC)cc3)nn12` has a pIC50 (Adenosine receptor A2a [1]) of 5.80, a pKi (Adenosine receptor A2a [2]) of 6.05 and a pKi (Adenosine receptor A2b [3]) of 5.99. The pKi (Adenosine receptor A1 [4]) was 6.40.

`CCCCc1nc2[nH]cnc2c2nc(-c3ccco3)nn12` showed a pIC50 (Adenosine receptor A2a [1]) of 6.68.

`CCCCc1nc2nc[nH]c2c2nc(-c3ccc(Br)cc3)nn12` was tested, and the pIC50 (Adenosine receptor A2a [1]) was 5.48.

In the case of `CCCCc1nc2[nH]cnc2c2nc(-c3cccc(OC)c3)nn12`, the pIC50 (Adenosine receptor A2a [1]) was 7.17.

`CCCc1nc2nc[nH]c2c2nc(-c3ccccc3)nn12` was tested, and the pIC50 (Adenosine receptor A2a [1]) was 6.92.

In the case of `CCc1nc2[nH]cnc2c2nc(-c3ccccc3)nn12`, the pIC50 (Adenosine receptor A2a [1]) was 6.44.

In the case of `CCCCc1nc2[nH]cnc2c2nc(C)nn12`, the pIC50 (Adenosine receptor A2a [1]) was 7.34.

Compound `CCCCc1nc2nc[nH]c2c2nc(-c3ccc(F)cc3)nn12` has a pIC50 (Adenosine receptor A2a [1]) of 6.29.

Compound `CCCCc1nc2nc[nH]c2c2nc(-c3ccc(O)cc3)nn12` has a pIC50 (Adenosine receptor A2a [1]) of 7.24.

`CCCCc1nc2[nH]cnc2c2nc(-c3cc(OC)c(OC)c(OC)c3)nn12` showed a pIC50 (Adenosine receptor A2a [1]) of 5.60.

Compound `CCCCc1nc2[nH]cnc2c2nc(-c3cccc(C)c3)nn12` has a pIC50 (Adenosine receptor A2a [1]) of 6.73.

With `Cc1nc2[nH]cnc2c2nc(-c3ccccc3)nn12` the pIC50 (Adenosine receptor A2a [1]) was 6.26.

Compound `CCCCc1nc2nc[nH]c2c2nc(-c3ccc(OCC)cc3)nn12` has a pKi (Adenosine receptor A1 [5]) of 6.38, a pIC50 (Adenosine receptor A2a [1]) of 5.42 and a pKi (Adenosine receptor A2a [6]) of 6.24. For the same compound, the pKi (Adenosine receptor A2b [7]) was 6.08.

`COc1ccc(-c2csc3nc(=O)cc(N)n23)cc1` showed a pKi (Adenosine receptor A2a [8]) of less than 5.00 and a pKi (Adenosine receptor A1 [9]) of less than 5.00.

`CCCCc1nc2nc[nH]c2c2nc(-c3cccc(Cl)c3)nn12` gave a pIC50 (Adenosine receptor A2a [1]) of 7.25.

`CCCCCc1nc2nc[nH]c2c2nc(-c3ccccc3)nn12` showed a pIC50 (Adenosine receptor A2a [1]) of 6.70.

For `CCCCc1nc2[nH]cnc2c2nc(-c3ccc(N(C)C)cc3)nn12`, the pKi (Adenosine receptor A1 [10]) was 5.88 and the pKi (Adenosine receptor A2b [11]) was 5.18.

For `CCCCCCc1nc2nc[nH]c2c2nc(-c3ccccc3)nn12`, the pIC50 (Adenosine receptor A2a [1]) was 5.11.

For `CCCCc1nc2[nH]cnc2c2nc(-c3ccc(C)cc3)nn12`, the pIC50 (Adenosine receptor A2a [1]) was 6.74.

`CCCCc1nc2[nH]cnc2c2nc(Cc3ccccc3)nn12` gave a pIC50 (Adenosine receptor A2a [1]) of 7.33.

`CCCCc1nc2[nH]cnc2c2nc(-c3cccnc3)nn12` was tested, and the pIC50 (Adenosine receptor A2a [1]) was 6.05.
